pIC50: −log10 of the molar value.
Tests used:
Type in all cases: biochemical
[1] = target: T1, BTK-WT (Homo sapiens, UniProt Q06187); assay: Btk in vitro inhibitory activity (one of Method A TR-FRET, Method B electrophoretic mobility shift, Method C radiometric filter binding); settings: D-compounds panel data; read-out: IC50 BTK-WT
T1 construct: purified from insect cells as a full-length construct containing an N-terminal 6X-His tag; His6 (N); made in house; host or cells: insect cells (baculovirus Sf21 in Method B)

[2] = target: T2, JAK3 (Homo sapiens, UniProt P52333); assay: Inhibition of a panel of kinases, in vitro HotSpot kinase assay: JAK3; settings: D-compounds panel data; 1 μM ATP; read-out: IC50 JAK3
T2 sequence (P52333 1-1124): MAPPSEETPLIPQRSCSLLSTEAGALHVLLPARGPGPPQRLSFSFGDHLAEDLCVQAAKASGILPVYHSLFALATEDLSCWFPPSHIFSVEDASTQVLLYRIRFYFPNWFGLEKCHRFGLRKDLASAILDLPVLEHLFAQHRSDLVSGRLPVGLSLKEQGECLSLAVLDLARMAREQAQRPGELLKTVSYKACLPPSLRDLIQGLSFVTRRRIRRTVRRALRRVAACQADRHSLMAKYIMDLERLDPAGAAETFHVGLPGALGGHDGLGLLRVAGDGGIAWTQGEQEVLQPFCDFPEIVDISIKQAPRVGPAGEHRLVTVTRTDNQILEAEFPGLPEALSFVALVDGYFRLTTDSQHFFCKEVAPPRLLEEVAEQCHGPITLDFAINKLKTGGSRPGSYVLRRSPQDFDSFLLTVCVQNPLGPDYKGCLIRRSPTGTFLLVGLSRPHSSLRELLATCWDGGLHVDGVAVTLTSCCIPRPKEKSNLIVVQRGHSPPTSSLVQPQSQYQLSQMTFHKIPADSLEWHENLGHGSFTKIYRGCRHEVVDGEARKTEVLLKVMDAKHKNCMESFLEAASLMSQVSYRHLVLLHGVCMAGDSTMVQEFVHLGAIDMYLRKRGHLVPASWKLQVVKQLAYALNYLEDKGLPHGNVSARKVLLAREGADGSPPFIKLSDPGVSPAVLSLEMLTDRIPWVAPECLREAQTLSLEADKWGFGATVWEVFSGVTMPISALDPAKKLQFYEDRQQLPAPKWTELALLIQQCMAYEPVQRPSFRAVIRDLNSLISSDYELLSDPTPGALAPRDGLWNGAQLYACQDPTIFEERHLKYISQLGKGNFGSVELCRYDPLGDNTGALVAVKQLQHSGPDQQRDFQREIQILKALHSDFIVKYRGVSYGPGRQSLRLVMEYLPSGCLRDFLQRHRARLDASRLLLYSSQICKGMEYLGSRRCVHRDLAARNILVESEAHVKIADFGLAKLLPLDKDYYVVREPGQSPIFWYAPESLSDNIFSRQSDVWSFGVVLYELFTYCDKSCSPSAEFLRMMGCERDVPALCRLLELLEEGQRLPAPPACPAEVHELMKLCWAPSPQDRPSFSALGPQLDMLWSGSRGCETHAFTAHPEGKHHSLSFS

[3] = target: LCK (Homo sapiens, UniProt P06239); assay: Inhibition of a panel of kinases, in vitro HotSpot kinase assay: LCK; settings: D-compounds panel data; 1 μM ATP; read-out: IC50 LCK
[4] = target: EGFR (Homo sapiens, UniProt P00533); assay: Inhibition of a panel of kinases, in vitro HotSpot kinase assay: EGFR; settings: D-compounds panel data; 1 μM ATP
Method: (§1) The degree of inhibition of a panel of kinases is determined using the in vitro HotSpot kinase assay (purified enzymes, ^33P-ATP, an appropriate substrate and 1 μM ATP).

[5] = target: SRC (Homo sapiens, UniProt P12931); assay: Inhibition of a panel of kinases, in vitro HotSpot kinase assay: SRC; settings: D-compounds panel data; 1 μM ATP
Method: as §1

Chain of LCK (P06239 whole entry): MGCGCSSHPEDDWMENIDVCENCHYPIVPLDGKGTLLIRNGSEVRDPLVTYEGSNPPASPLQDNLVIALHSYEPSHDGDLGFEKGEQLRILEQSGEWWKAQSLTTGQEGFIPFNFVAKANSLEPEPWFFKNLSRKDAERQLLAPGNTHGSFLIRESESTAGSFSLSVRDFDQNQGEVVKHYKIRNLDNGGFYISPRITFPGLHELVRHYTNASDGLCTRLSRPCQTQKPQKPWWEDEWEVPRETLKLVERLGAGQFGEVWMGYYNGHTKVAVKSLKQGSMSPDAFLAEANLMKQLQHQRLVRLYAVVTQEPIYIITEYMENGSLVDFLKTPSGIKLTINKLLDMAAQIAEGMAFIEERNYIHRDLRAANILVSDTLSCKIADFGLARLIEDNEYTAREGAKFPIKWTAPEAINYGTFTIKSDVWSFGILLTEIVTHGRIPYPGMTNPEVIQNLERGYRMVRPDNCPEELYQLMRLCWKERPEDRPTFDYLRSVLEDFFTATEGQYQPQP
T1 sequence (Q06187 whole entry): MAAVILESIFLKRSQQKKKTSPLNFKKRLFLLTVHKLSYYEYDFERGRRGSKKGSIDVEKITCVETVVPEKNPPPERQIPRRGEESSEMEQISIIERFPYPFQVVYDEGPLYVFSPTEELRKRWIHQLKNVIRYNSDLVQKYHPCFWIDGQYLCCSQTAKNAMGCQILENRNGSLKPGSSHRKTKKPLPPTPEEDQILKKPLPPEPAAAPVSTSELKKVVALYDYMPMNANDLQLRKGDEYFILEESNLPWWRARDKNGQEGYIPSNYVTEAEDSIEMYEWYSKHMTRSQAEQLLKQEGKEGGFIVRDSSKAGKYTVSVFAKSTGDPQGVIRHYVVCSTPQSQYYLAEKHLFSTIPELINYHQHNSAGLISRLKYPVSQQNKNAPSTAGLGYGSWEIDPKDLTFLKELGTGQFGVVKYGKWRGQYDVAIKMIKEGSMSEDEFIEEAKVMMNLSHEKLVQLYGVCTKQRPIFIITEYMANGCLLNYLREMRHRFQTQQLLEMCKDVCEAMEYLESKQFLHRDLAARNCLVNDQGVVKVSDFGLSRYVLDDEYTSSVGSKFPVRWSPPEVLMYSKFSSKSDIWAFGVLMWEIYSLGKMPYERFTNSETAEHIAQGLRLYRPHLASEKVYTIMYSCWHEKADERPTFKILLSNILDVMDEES
Chain of SRC (P12931 whole entry): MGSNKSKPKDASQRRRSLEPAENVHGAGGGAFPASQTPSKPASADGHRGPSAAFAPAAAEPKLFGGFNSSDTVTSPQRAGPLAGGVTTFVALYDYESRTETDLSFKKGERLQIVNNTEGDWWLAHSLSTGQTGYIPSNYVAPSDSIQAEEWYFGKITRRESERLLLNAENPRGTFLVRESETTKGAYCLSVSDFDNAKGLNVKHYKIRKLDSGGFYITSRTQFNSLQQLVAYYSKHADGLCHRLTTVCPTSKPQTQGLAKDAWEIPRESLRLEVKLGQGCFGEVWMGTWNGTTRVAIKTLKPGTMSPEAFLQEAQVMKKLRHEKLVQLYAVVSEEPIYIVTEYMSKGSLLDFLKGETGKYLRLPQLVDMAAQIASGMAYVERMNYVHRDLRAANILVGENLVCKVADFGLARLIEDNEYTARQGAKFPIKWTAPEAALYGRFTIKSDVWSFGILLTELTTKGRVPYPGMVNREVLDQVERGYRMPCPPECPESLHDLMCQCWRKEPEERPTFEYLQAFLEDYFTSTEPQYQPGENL
Chain of EGFR (P00533 25-1210): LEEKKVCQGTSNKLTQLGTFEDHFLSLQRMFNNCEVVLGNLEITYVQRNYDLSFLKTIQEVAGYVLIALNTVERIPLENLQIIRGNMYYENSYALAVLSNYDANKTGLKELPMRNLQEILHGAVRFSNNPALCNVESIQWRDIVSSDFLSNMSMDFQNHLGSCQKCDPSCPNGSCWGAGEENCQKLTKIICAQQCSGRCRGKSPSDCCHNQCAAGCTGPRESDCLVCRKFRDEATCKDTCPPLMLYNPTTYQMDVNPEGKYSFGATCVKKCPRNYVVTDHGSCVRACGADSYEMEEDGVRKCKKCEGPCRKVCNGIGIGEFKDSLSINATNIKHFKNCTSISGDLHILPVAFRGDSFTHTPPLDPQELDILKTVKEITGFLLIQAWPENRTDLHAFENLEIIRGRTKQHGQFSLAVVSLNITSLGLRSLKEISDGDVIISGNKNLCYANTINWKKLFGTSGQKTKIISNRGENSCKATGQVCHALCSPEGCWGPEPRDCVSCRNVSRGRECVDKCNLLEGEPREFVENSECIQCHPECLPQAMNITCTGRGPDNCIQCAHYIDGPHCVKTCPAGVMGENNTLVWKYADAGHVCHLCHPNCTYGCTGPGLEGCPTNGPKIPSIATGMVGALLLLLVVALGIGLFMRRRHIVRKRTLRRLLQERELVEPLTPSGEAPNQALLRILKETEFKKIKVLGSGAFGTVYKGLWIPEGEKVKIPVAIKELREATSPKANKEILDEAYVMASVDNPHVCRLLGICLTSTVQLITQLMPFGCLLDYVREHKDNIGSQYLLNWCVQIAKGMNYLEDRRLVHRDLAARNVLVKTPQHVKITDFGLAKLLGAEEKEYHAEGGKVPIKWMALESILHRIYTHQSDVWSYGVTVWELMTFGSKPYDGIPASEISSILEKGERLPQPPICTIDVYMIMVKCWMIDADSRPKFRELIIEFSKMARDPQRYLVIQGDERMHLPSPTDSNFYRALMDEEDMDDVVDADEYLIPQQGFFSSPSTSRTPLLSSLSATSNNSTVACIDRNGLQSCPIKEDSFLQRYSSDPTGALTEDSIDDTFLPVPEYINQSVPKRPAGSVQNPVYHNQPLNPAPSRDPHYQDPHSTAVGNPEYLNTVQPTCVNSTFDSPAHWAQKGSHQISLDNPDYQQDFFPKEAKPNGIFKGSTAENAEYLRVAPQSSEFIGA

| Structure (SMILES) | pIC50 [1] | pIC50 [2] | pIC50 [3] | pIC50 [4] | pIC50 [5] |
| --- | --- | --- | --- | --- | --- |
| CN(C)C(=O)N[C@H]1CCCN(c2cnc(C(N)=O)c(Nc3ccc4ncccc4c3)n2)[C@H]1CO (racemic) [Example D-65, cis 5-[3-[(dimethylcarbamoyl)amino]-2-(hydroxymethyl)piperidin-1-yl]-3-[(quinolin-6-yl)amino]pyrazine-2-carboxamide] | 6.00 to 7.00 | < 5.00 | < 5.00 | < 5.00 | 5.00 to 6.00 |
| Cn1cc(Nc2nc(N3C[C@H](CO)C[C@H](NC(=O)c4ccc(C5CC5)cc4)C3)cnc2C(N)=O)cn1 (racemic) [Example D-43, (racemic)-cis-5-[3-(4-cyclopropylbenzamido)-5-(hydroxymethyl)piperidin-1-yl]-3-[(1-methyl-1H-pyrazol-4-yl)amino]pyrazine-2-carboxamide] | ≥ 8.00 | 6.00 to 7.00 | 6.00 to 7.00 | 5.00 to 6.00 | 6.00 to 7.00 |
| Cc1cc(Nc2nc(N3CCC[C@@H](NC(=O)c4ccc(C5CC5)cc4F)C3)cnc2C(N)=O)on1 [Example D-2, 5-[(3R)-3-(4-cyclopropyl-2-fluorobenzamido)piperidin-1-yl]-3-[(3-methyl-1,2-oxazol-5-yl)amino]pyrazine-2-carboxamide] | 6.00 to 7.00 | 5.00 to 6.00 | < 5.00 | < 5.00 | 5.00 to 6.00 |
| Cn1cc(Nc2nc(N3CCC[C@@H]4[C@H]3CCCN4C(=O)c3ccc(C4CC4)cc3)cnc2C(N)=O)cn1 [Example D-46, 5-I[(4aR,8aR)-5-(4-cyclopropylbenzoyl)-decahydro-1,5-naphthyridin-1-yl]-3-[(1-methyl-1H-pyrazol-4-yl)amino]pyrazine-2-carboxamide] | 7.00 to 8.00 | 5.00 to 6.00 | 6.00 to 7.00 | 6.00 to 7.00 | 6.00 to 7.00 |
| CN1CCN(C(=O)c2ccc(Nc3nc(N[C@H]4CC[C@@H](NC(=O)N(C)C)CC4)cnc3C(N)=O)cc2)CC1 [Example D-72, 3-{[4-(4-methylpiperazine-1-carbonyl)phenyl]amino}-5-{[(1s,4s)-4-[(dimethylcarbamoyl)amino]cyclohexyl]amino}pyrazine-2-carboxamide] | 7.00 to 8.00 | 5.00 to 6.00 | 7.00 to 8.00 | 5.00 to 6.00 | 6.00 to 7.00 |
| Cc1cc(Nc2nc(N3C[C@H](NC(=O)N(C)C)CC[C@@H]3C)cnc2C(N)=O)sn1 [Example D-74, 5-[(2S,5R)-5-[(dimethylcarbamoyl)amino]-2-methylpiperidin-1-yl]-3-[(3-methyl-1,2-thiazol-5-yl)amino]pyrazine-2-carboxamide] | 6.00 to 7.00 | 6.00 to 7.00 | 6.00 to 7.00 | 6.00 to 7.00 | 5.00 to 6.00 |
| C[C@@H]1[C@H](NC(=O)c2ccc(C3CC3)cc2)CCCN1c1cnc(C(N)=O)c(Nc2ccc3nccn3c2)n1 [Example D-83, 5-[(2R,3R)-3-(4-cyclopropylbenzamido)-2-methylpiperidin-1-yl]-3-({imidazo[1,2-a]pyridin-6-yl}amino)pyrazine-2-carboxamide] | 7.00 to 8.00 | 5.00 to 6.00 | 5.00 to 6.00 | < 5.00 | 6.00 to 7.00 |
| Cc1csc(Nc2nc(N3CCC[C@@H](NC(=O)c4ccc(C5CC5)cc4F)[C@H]3C)cnc2C(N)=O)n1 [Example D-63, 5-[(2R,3R)-3-(4-cyclopropyl-2-fluorobenzamido)-2-methylpiperidin-1-yl]-3-[(4-methyl-1,3-thiazol-2-yl)amino]pyrazine-2-carboxamide] | 5.00 to 6.00 | < 5.00 | < 5.00 | < 5.00 | < 5.00 |
| C[C@@H]1[C@H](NC(=O)c2ccc(C3CC3)cc2)CCCN1c1cnc(C(N)=O)c(Nc2ccc(OC(F)(F)F)cc2)n1 [Example D-42, 5-[(2R,3R)-3-(4-cyclopropylbenzamido)-2-methylpiperidin-1-yl]-3-{[4-(trifluoromethoxy)phenyl]amino}pyrazine-2-carboxamide] | 6.00 to 7.00 | < 5.00 | < 5.00 | < 5.00 | < 5.00 |
| C[C@@H]1[C@H](NC(=O)c2ccc(C3CC3)cc2)CCCN1c1cnc(C(N)=O)c(Nc2cnn(CC3CCC(F)(F)CC3)c2)n1 [Example D-321, 5-[(2R,3R)-3-(4-cyclopropylbenzamido)-2-methylpiperidin-1-yl]-3-({1-[(4,4-difluorocyclohexyl)methyl]-1H-pyrazol-4-yl}amino)pyrazine-2-carboxamide] | 7.00 to 8.00 | < 5.00 | 5.00 to 6.00 | < 5.00 | 6.00 to 7.00 |
| C[C@@H]1[C@H](NC(=O)c2ccc(C3CC3)cc2F)CCCN1c1cnc(C(N)=O)c(Nc2nc3c(s2)CN(C)CC3)n1 [Example D-62, 5-[(2R,3R)-3-(4-cyclopropyl-2-fluorobenzamido)-2-methylpiperidin-1-yl]-3-({5-methyl-4H,5H,6H,7H-[1,3]thiazolo[5,4-c]pyridin-2-yl}amino)pyrazine-2-carboxamide] | 6.00 to 7.00 | < 5.00 | < 5.00 | < 5.00 | < 5.00 |
| C[C@@H]1[C@H](NC(=O)c2ccc(C3CC3)cc2)CCCN1c1cnc(C(N)=O)c(Nc2ccc(CN3CCOCC3)cc2)n1 [Example D-316, 5-[(2R,3R)-3-(4-cyclopropylbenzamido)-2-methylpiperidin-1-yl]-3-{[4-(morpholin-4-ylmethyl)phenyl]amino}pyrazine-2-carboxamide] | ≥ 8.00 | 5.00 to 6.00 | 7.00 to 8.00 | 6.00 to 7.00 | 7.00 to 8.00 |
| C[C@H]1C[C@@H](NC(=O)c2ccc(C3CC3)cc2)CN(c2cnc(C(N)=O)c(Nc3cnn(C)c3)n2)C1 [Example D-30, 5-[(3R,5S)-3-(4-cyclopropylbenzamido)-5-methylpiperidin-1-yl]-3-[(1-methyl-1H-pyrazol-4-yl)amino]pyrazine-2-carboxamide] | ≥ 8.00 | < 5.00 | 6.00 to 7.00 | < 5.00 | 6.00 to 7.00 |
| Cc1cc(Nc2nc(N3C[C@@H](NC(=O)N(C)C)CC[C@H]3C)cnc2C(N)=O)sn1 [Example D-75, 5-[(2R,5S)-5-[(dimethylcarbamoyl)amino]-2-methylpiperidin-1-yl]-3-[(3-methyl-1,2-thiazol-5-yl)amino]pyrazine-2-carboxamide] | 7.00 to 8.00 | 6.00 to 7.00 | 6.00 to 7.00 | 6.00 to 7.00 | 6.00 to 7.00 |
| C[C@@H]1[C@H](NC(=O)c2ccc(C(F)(F)F)cn2)CCCN1c1cnc(C(N)=O)c(Nc2cnn(C)c2)n1 [Example D-87, 3-[(1-methyl-1H-pyrazol-4-yl)amino]-5-[(2R,3R)-2-methyl-3-[5-(trifluoromethyl)pyridine-2-amido]piperidin-1-yl]pyrazine-2-carboxamide] | ≥ 8.00 | 6.00 to 7.00 | 6.00 to 7.00 | 6.00 to 7.00 | 7.00 to 8.00 |
| Cc1cc(Nc2nc(N3CCC[C@@H](NC(=O)N(C)C)[C@H]3CO)cnc2C(N)=O)sn1 [Example D-67, 5-[(2S,3R)-3-[(dimethylcarbamoyl)amino]-2-(hydroxymethyl)piperidin-1-yl]-3-[(3-methyl-1,2-thiazol-5-yl)amino]pyrazine-2-carboxamide] | 7.00 to 8.00 | 5.00 to 6.00 | 6.00 to 7.00 | 6.00 to 7.00 | 6.00 to 7.00 |
| C[C@@H]1[C@H](NC(=O)c2ccc(C3CC3)cc2)CCCN1c1cnc(C(N)=O)c(Nc2ccc(OC3CCN(C)CC3)cc2)n1 [Example D-89] | ≥ 8.00 | 6.00 to 7.00 | 7.00 to 8.00 | 6.00 to 7.00 | 7.00 to 8.00 |
